The results in this text go back to publication PMC5711939, “The rumen microbiome: an underexplored resource for novel antimicrobial discovery” (NPJ Biofilms and Microbiomes, 2017).

Data set [1] deals with C. coli. The protocol: Peptides dissolved in sterile distilled water and comparator antibiotics dissolved in the appropriate solvents[38] were added to sterile U-bottom polypropylene 96-well microplates at desired concentrations.
Data set [2] relates to P. aeruginosa H1001. Kind of data set: SPOT peptide library screen (luminescence). The following applies: 75% reduction of luminescence vs untreated controls; active IC75≤0.25, semi-active 0.25<IC75≤0.50, inactive IC75>0.5. Further details: unit not given here. Type of data set: cell-based, Pseudomonas aeruginosa. The source says: The peptides in the created peptide library were synthesized based on the SPOT technique and pure peptides (≥95% purity) were synthesized on resin using solid phase Fmoc peptide chemistry.[16] The 135 peptides in the peptide library were screened for antimicrobial activity using both luminescent (Pseudomonas aeruginosa strain H1001)[34] and non-luminescent (epidemic methicillin resistant S. aureus EMRSA-15, Sal. typhimurium and E. coli K12) bacterial strains. Activity against non-luminescent bacteria strains was assessed by fluorescence readings (excitation/emission spectra of 560/590 nm) after the addition of resazurin dye (100 µm final concentration). The results from the screen were analysed using the MATLAB extension Gait-CAD as previously described.[35] Concentration values with a 75% reduction of luminescence or fluorescence (IC75) in relation to untreated controls were computed.

For data set [3], the system named is human and sheep erythrocytes.
Protocol: The haemolytic activity of peptides was determined by measuring haemoglobin leakage from human and sheep erythrocytes (Divbioscience, NL) after 1 h incubation at OD450nm. Cetyltrimethylammonium bromide (CTAB), a non-specific detergent was also included as a positive control. Triton-X 100 (0.1% v/v) was also used as an indicator of 100% haemolysis while PBS treatment represented auto-haemolysis.
A short description of data set [4]: Peptide-lipid interaction with pure lipids, lipid monolayer. It is filed as binding. The following applies: peptide 1 µg/ml; for Interaction with pure lipids: POPG, cardiolipin, LTA, POPE above POPC, initial surface pressure 30 ± 0.5 mN/m. The protocol: Membrane permeabilsation was evaluated using propidium iodide assay as previously explained,[43] with CTAB as positive control. Peptide–lipid interaction was measured using reconstituted lipid monolayer.[44] Total lipid extract from overnight liquid cultures of MRSA USA300 was obtained by Folch extraction, resuspended in chloroform and stored at −20 °C under nitrogen conditions. Pure bacterial and eukaryotic lipids, POPG, cardiolipin, LTA, POPE and POPC (Avanti Polar Lipid USA) were reconstituted in chloroform at 1 mg/ml and stored at −20 °C under nitrogen. Using a 50 µl Hamilton’s syringe, total MRSA lipid extract or pure lipids were spread at the surface of PBS creating a lipid monolayer at the air-water interface until an initial surface pressure of 30 ± 0.5 mN/m was reached. This corresponds to a lipid packing density theoretically equivalent to that of the outer leaflet of the cell membrane.[45] After 5–10 min of incubation allowing evaporation of the solvent and stabilization of the initial surface pressure, peptides were injected into the PBS (pH 7.4, volume 800 µl) sub-phase using a 10 µl Hamilton syringe. The variation of the surface pressure caused by peptide injection was then continuously monitored using a fully automated microtensiometer (µTROUGH SX, Kibron Inc., Helsinki, Finland) until reaching equilibrium (maximal surface pressure increase usually obtained after 15–25 min). Critical pressure of insertion of each peptide in the different lipids was also determined by changing the initial pressure of lipid monolayer (from 10 and 30 mN/m) and measuring the variation of pressure caused by the injection of peptide (at 1 µg/ml final concentration). All experiments were carried out in a controlled atmosphere at 20 °C ± 1 °C and data were analyzed using the Filmware 2.5 program (Kibron Inc., Helsinki, Finland). Variation of surface pressure was plotted as a function of initial surface pressure and critical pressure of insertion was calculated as the theoretical value of initial pressure of lipid monolayer not permissive to peptide insertion, i.e., a variation of pressure equal to 0 mN/m. The accuracy of the system under our experimental conditions was determined to be ± […] for surface pressure measurements.

The test system of data set [5] is HUVEC and HepG2 cells. The following applies: for total growth inhibition (TGI): HUVEC and HepG2 cells (cell line not given). As for the experimental part: Cytotoxic activity of the identified peptides was determined using HUVEC and HEPG2 cells as described previously.[41],[42] […] Significant responses were defined when observed cell growth was ≤50% and tube length was ≤70% using the proliferation and tube formation assays respectively. Permeabilization of eukaryotic membrane by Lynronne-1, Lynronne-2 and Lynronne-3 was also investigated using HepG2 cells as described previously.[43]

The test system of data set [6] is S. aureus MRSA ATCC 33591. Kind of data set: Neutropenic mouse MRSA thigh infection model. Type of data set: in vivo, Staphylococcus aureus. The following applies: neutropenic male ICR mice; 10 mg/kg IV once or twice (2 h or 2 and 8 h post infection). As for the experimental part:
In the thigh infection model, using neutropenic mice,[25] groups of five male ICR mice weighing 22 ± 2 g were inoculated intramuscularly (IM) with S. aureus MRSA, ATCC 33591 (1.57 × 10^5 CFU/mouse (0.1 ml/thigh)) in the right thigh. Lynronne-1, Lynronne-2 and Lynronne-3 at 10 mg/kg were intravenously (IV) administered once 2 h post infection or twice 2 and 8 h post-infection. The reference substance, vancomycin, was also intravenously injected 2 and 8 h post-infection at 10 and 30 mg/kg. Test animals were sacrificed 26 h after inoculation and the infected thighs were excised and the bacterial burden (CFU/gram) was determined.

The nature of data set [7]: in vitro. The following applies: 25% serum. The protocol: The stability of Lynronne-1, Lynronne-2 and Lynronne-3 in the presence of serum was investigated by monitoring the concentrations of the remaining soluble peptides by reverse phase high-performance liquid chromatography (RP-HPLC), as described previously by Nguyen and colleagues.[26] Degradation of Lynronne-1, Lynronne-2 and Lynronne-3 in the presence of trypsin was adapted from a previously described method.[46] Briefly, trypsin (5 µl of 0.5 ng/ml) and 37.5 µl trypsin activation buffer (50 mM Tris, 2 mM CaCl2, pH 7.8-8) was added to 7.5 µl of 5 mg/ml Lynronne-1, Lynronne-2 and Lynronne-3 and incubated at 37 °C for different time points (0, 1, 3, and 24 h). An aliquot from each reaction mixture at 0 h was prepared to allow matrix-assisted laser desorption/ionization time-of-flight (MALDI-TOF) mass spectrometric verification of the synthetic peptides prior to incubation. Trypsin action buffer (5 µl) and peptides without trypsin was used as negative control. After the various incubation times, the reaction mixtures were acidified by addition of an equal volume (50 µl) of 10% (v/v) trifluroacetic acid (TFA) to stop further enzyme activity. Lynronne-1, Lynronne-2 and Lynronne-3 degradation products were evaporated to dryness and reconstituted in acetonitrile/water/TFA (40/59.5/0.5%, v/v/v). Samples (1 µl) were carefully placed onto a stainless steel (MALDI) target, covered with 1 µl of matrix (53 mM a-cyano-4-hydroxycinnamic acid in acetonitrile/water/TFA, 70/29.97/0.03%, v/v/v) solution before analysis by mass spectrometry.

Data set [8] relates to MRSA strains. To be noted: sub-MIC levels, 25 days, daily passage. As for the experimental part: To evaluate if populations of AMP-resistant bacteria could be selected, cultures were continuously exposed to Lynronne-1, Lynronne-2 and Lynronne-3 for a duration of 25 days, as previously described.[40] Briefly, broth microdilution susceptibility testing was performed using a standard doubling-dilution series of Lynronne-1, Lynronne-2 and Lynronne-3 concentrations on day 1.

Ends that are not written are not given here. Where only a bound is given, the exact number is not on record here.

One may read the MIC as the smallest concentration in the dilution series that meets the test's criterion for growth inhibition. One may read the fraction remaining as what is left of the initial amount, in per cent. As to NRFTARFRRTPWRLCLQFRQ-NH2 [Lynronne-3], the MIC in data set [1] stood at 128 µg/mL. Also, the “IC75 values indicating activity classes, P. aeruginosa H1001” value in data set [2] is on record as 0.54. Also, in data set [3], the “Haemolytic activity against red blood cells” value (shortened to “Haemolytic activity”) is listed as “little haemolytic activity”. Further, in data set [4], the “Interaction with pure lipids” value is “preferentially interact with lipids specific to bacteria”. For the same substance, in data set [5], the “total growth inhibition (TGI)” value came out at 61.2 µg/mL. In addition, in data set [6], the “Antimicrobial effect compared to the vehicle/control group (0.9% NaCl)” value is “not associated with any significant antimicrobial effects”. Besides, in data set [7], the amount remaining at 2 h was at least 88% and the share remaining at 6 h turned out to be 34%. Besides, the “Resistance acquisition during serial passage” value in data set [8] is “failed to produce mutants that were resistant”.

Regarding LPRRNRWSKIWKKVVTVFS-NH2 [Lynronne-1], the MIC in data set [1] stood at 64 µg/mL. Further, in data set [2], the “IC75 values indicating activity classes, P. aeruginosa H1001” value is given as 0.14. The “Haemolytic activity” value in data set [3] is on record as “little haemolytic activity”. In addition, the “Interaction with pure lipids” value in data set [4] is “preferentially interact with lipids specific to bacteria”. Further, the “total growth inhibition (TGI)” value in data set [5] was found to be 67.1 µg/mL. In addition, the “Antimicrobial effect compared to the vehicle/control group (0.9% NaCl)” value in data set [6] is “not associated with any significant antimicrobial effects”. In data set [7], this substance yielded an amount remaining at 2 h of 48% and a share remaining at 6 h of 15%. Further, in data set [8], the “Resistance acquisition during serial passage” value was “failed to produce mutants that were resistant”.

In data set [1], HLRRINKLLTRIGLYRHAFG-NH2 [Lynronne-2] came in with a minimum inhibitory concentration (MIC) above 128 µg/mL. Moreover, in data set [2], the “IC75 values indicating activity classes, P. aeruginosa H1001” value was 0.14. In addition, the “Haemolytic activity” value in data set [3] is listed as “little haemolytic activity”. The “Interaction with pure lipids” value in data set [4] is recorded as “preferentially interact with lipids specific to bacteria”. For the same substance, the “Affinity for lipids by critical pressure of insertion” value in data set [4] (initial pressure varied 10 to 30 mN/m) is “highest affinity for LTA”. Also, in data set [5], the Cytotoxic activity entry was “no cytotoxic activity”. In addition, the “Antimicrobial effect compared to the vehicle/control group (0.9% NaCl)” value in data set [6] is given as “not associated with any significant antimicrobial effects”. In data set [7], the amount remaining at 2 h is at least 60% and the fraction remaining at 6 h came to 42%. Further, in data set [8], the “Resistance acquisition during serial passage” value is listed as “failed to produce mutants that were resistant”.
